Reference: US6139864A, “Compositions for common colds” (Sudzucker Aktiengesellschaft, priority 1998, dated 2000)

Tests used:
[1] = Nephelometric determination of free Zn ions in the presence of polyols; type: physicochemical; settings: 35° C., acetate buffer pH=6.0; for Percentage of free (uncomplexed) ions: of total amount, 26 mg Zn in 50 ml; for Zn ions free in solution: standardized to the same Zn ion concentration (26 mg in 50 ml)
Procedure: 10 ml of zinc gluconate solution (2 g of zinc gluconate and 250 ml of deionized water) are mixed with 10 ml of polyol solution (1.0 g of sugar or sugar alcohol dissolved in 25 ml of deionized water) and 2 ml of acetate buffer (pH=6.0) and thermostatted at 35° C. in a cuvette.
1 molar NaHCO3 solution is subsequently added dropwise in small amounts, and the turbidity is determined using a turbidity photometer.
Isomalt, sucrose, glucose, hard isomalt candies, the zinc gluconate which was used as a source of zinc and two commercial products are compared, the overall amount of Zn ions in each case corresponding to 26 mg in 50 ml of solution.

Staphylococcus aureus = assay: Growth of Staphylococcus aureus in CASO medium with added sugar alcohol, optical density OD578 versus control; type: cell-based; settings: 16 h, read-out: growth reduced to
Procedure: Staphylococcus aureus was cultivated at 37° C. in CASO medium to which, in addition to the carbon source glucose (5% strength), isomalt (0.58 M) had been added. The growth of the bacteria cultures in a shaking flask was determined after 16 h by means of the optical density (OD578) and compared with a control (CASO medium without isomalt). It was observed that in all experiments the growth of the cultures which were grown in isomalt was inhibited by more than 50%.

[2] = Godfrey et al. 1992; Zarembo et al. 1992; U.S. Pat. Nos. 5,409,905 and 5,002,970; cited from earlier work
[3] = Dissolution rate of sugar alcohols; type: physicochemical
colds = settings: free zinc ions; Mossad et al. 1996, Godfrey et al. 1996; cited from earlier work
rhinoviruses = settings: Merluzzi et al. 1989; cited from earlier work

Compound | Percentage of free (uncomplexed) ions [1] | Zn ions free in solution [1] | other results
OC[C@H]1O[C@@](CO)(O[C@H]2O[C@H](CO)[C@@H](O)[C@H](O)[C@H]2O)[C@@H](O)[C@@H]1O [Sucrose] | 48% | 12.40 mg in 50 ml of solution | –
OC[C@@H](O)[C@@H](O)[C@H](O)[C@@H](O)CO [sorbitol] | – | – | activity at 580000 µM (Staphylococcus aureus): ~75%; zinc-complexing action [2]: zinc-complexing action
OC[C@@H](O)[C@@H](O)[C@H](O)[C@H](O)CO[C@H]1O[C@H](CO)[C@@H](O)[C@H](O)[C@H]1O [1,1-GPM, 1-O-α-D-glucopyranosyl-D-mannitol] | – | – | dissolution rate compared with 1,6-GPS [3]: considerably lower dissolution rate than 1,6-GPS
OC[C@@H](O)[C@@H](O)[C@H](O)[C@H](O)CO [mannitol] | – | – | zinc-complexing action [2]: zinc-complexing action
zinc gluconate [Zn gluconate] | 64% | 14.62 mg in 50 ml of solution | –
O=C[C@H](O)[C@@H](O)[C@H](O)[C@H](O)CO [Glucose] | 50% | 13.00 mg in 50 ml of solution | –
zinc ions | – | – | duration and severity of the symptoms of colds (colds): markedly reduces both the duration and the severity of the symptoms of colds; antiviral effects (rhinoviruses): antiviral effects are a direct function of the amount of free Zn^2+ ions
